{"source": "patent US6004999A", "about": "“Triptolide derivatives useful in the treatment of autoimmune diseases” (priority 1998, dated 1999)", "key": {"[1]": {"test_system": "immunosuppressive activity", "settings": "in conjunction with another immunosuppressive agent (cyclosporin A, FK506, etc.); WO 94/26265; cited from earlier work"}, "[2]": {"assay": "Percent change in body weight in the adjuvant-induced arthritis rat test", "format": "in vivo, rat (male Wistar-Lewis)", "settings": "between day 1 and day 21, arthritic CMC control 17.9, normal non-arthritic animals 32.0", "description": "(§1) Following generally the procedure of Pearson and Wood, Arth. Rheum., 2, 44 (1959), the anti-inflammatory activity of the following compounds was determined in a rat model of adjuvant-induced arthritis. Male Wistar-Lewisrats (Mollegaard, Breeding Centre Ltd, BIBY, DK 4623 LI, SKENSVED, P.P. Box 28, DK) with a body weight between 160 g and 200 g are used. Freund's adjuvant (0.1 mL, 6 mg Mycobacterium smegmatis suspension per mL in heavy white paraffin oil, Merck/Darmstadt) was injected into the base of the tail. Between day 10 and day 14 of the test, immunopathological processes let to chronic inflammation, especially in the form of arthritic and periarthritic symptoms in all parts of the body. The animals received standardized food Altromin-R (Altrogge, Lage) and had free access to water. The compounds were administered i.p. (a suspension in carboxymethyl cellulose solution in an injection volume of 0.5 mL/100 g body weight) on 12 consecutive days, starting with the day of the adjuvant injection. On day 1 and day 18 of the study, the volume of both hind paws and the body weight were recorded, and in addition on day 18 the arthritis index. Cyclosporin A and Prednisolone were used as standard compounds. In addition, table IV presents the percent change in body weight (weight gain) between day 1 and day 21 of the above test."}, "[3]": {"test_system": "rat model of adjuvant-induced arthritis", "assay": "Anti-inflammatory activity in the rat model of adjuvant-induced arthritis", "format": "in vivo, rat (male Wistar-Lewis)", "settings": "12 consecutive days", "description": "as §1"}, "IL-2 production": {"test_system": "IL-2 production", "assay": "Interleukin-2 assay: IL-2 production by PHA/TPA-stimulated cells (ELISA)", "format": "cell-based, human", "settings": "PHA 10 μg/mL and 10^-8 M TPA stimulation; 16-24 hours", "description": "(§2) Jurkat E6-1 cell line (ATCC), a human leukemic T cell line or lymphocytes prepared from fresh human blood, are grown in complete culture medium consisting of RPMI-1640 (Mediatech) supplemented with 10% v/v fetal bovine serum (HyClone, Logen, Vermont), penicillin (100 units/mL), streptomycin ([…]), and 2mM L-glutamine (GIBCO, Grand Island, N.Y.). The cells are grown to a concentration of between 1.2 to 1.8×10^6 cells/mL before use. The cells are then centrifuged at low speed and resuspended to a concentration of 1.25×10^6 cells/mL in fresh medium.\n(§3) The compounds to be tested are dissolved in DMSO, and water is added to make a 50% DMSO/water solution. The compounds are then diluted in sterile water such that the DMSO concentrations are less then 0.05%. The cells at a concentration of 1.25×10^6 cells/mL are stimulated with phytohemagglutinin 10 μg/mL (PHA) and 10^-8 M phorbol ester (12-O-tetradecanoylphorbol 13-acetate: TPA), (Sigma, St. Louis, Mo.). The compounds are then added and the cells are plated in flat-bottom tissue culture plates (Falcon, Lincoln Park, N.J.), with 250,000 cells/well. Plates are then incubated at 37° C. in a 5% CO2 atmosphere.\nAfter incubation (16-24 hours), the cells are assayed for IL-2 production and cell viability (MTT). IL-2 production is assayed utilizing a solid phase ELISA immunoassay, sold in kit form by R&D Systems, Inc., Minneapolis, Minn."}, "lymphocyte proliferation": {"test_system": "lymphocyte proliferation", "settings": "Yang et al. 1992, 1994; cited from earlier work"}, "[4]": {"test_system": "Jurkat E6-1 cell line or lymphocytes prepared from fresh human blood", "assay": "Cell viability (MTT mitochondrial enzyme assay)", "format": "cell-based", "settings": "cell viability after 16-24 hours incubation; MTT 4 hours", "description": "as §2, §3\nCell viability is measured by the use of a mitochondrial enzyme assay. After removal of the supernatant for the IL-2 assay, Cell Titer 96 (a commercial solution of MTT obtained from Promega, Madison, Wis.), is added to the plates and incubated for 4 hours at 37° C. A solubilization solution is then added and incubated overnight. The plates are then read on an ELISA plate reader at a wavelength of 570 nm. Table II presents the results for the lnterleukin-2 assay, the cell viability assay and the ratio of cell viability/IL-2 inhibition."}}, "data": [{"molecule": "C[C@@H](CO)[C@]12O[C@H]1[C@@H]1O[C@]13[C@]1(O[C@H]1C[C@H]1C4=C(CC[C@@]13C)C(=O)OC4)[C@@H]2O", "note": "[16-hydroxytriptolide]", "values": [{"measurement": "immunosuppressive activity", "setting": "[1]", "result": "increase in immunosuppressive activity relative to the sum of the effects"}]}, {"molecule": "CC(C)C12OC1C1OC13C1(C)CCC4=C(COC4=O)C1CCC3(O)C2O", "note": "(stereo not drawn) [Example 1, [5aR-(5aα,6α,6aα,7aα,7bβ,8aS*,8bα)]-3,3b,4,5,5a,6,6a,7a,7b,8b,9,10-dodecahydro-5a,6-dihydroxy-8b-methyl-6a-(1-methylethyl)-1H-bisoxireno[4b,5:6,7]phenanthro[1,2-c]furan-1-one]", "values": [{"measurement": "% Change in Body Weight (weight gain)", "setting": "[2]; 10 mg/kg/day i.p.", "result": 29.9, "unit": "%"}, {"measurement": "% Inhibition", "setting": "[3]; 10 mg/kg/day i.p.", "result": 90, "unit": "%"}, {"measurement": "IC50 /IL-2", "setting": "IL-2 production", "result": 0.036, "unit": "µg/mL"}]}, {"molecule": "C[C@]12C=CC(=O)C=C1CC[C@@H]1[C@@H]2[C@@H](O)C[C@@]2(C)[C@H]1CC[C@]2(O)C(=O)CO", "note": "[Prednisolone]", "values": [{"measurement": "% Change in Body Weight (weight gain)", "setting": "[2]; 15 mg/kg/day i.p.", "result": 14.2, "unit": "%"}, {"measurement": "% Inhibition", "setting": "[3]; 15 mg/kg/day i.p.", "result": 100, "unit": "%"}]}, {"molecule": "CC(C)[C@]12O[C@H]1[C@@H]1O[C@]13[C@]1(O[C@H]1C[C@H]1C4=C(CC[C@@]13C)C(=O)OC4)[C@@H]2O", "note": "[Triptolide]", "values": [{"measurement": "% Change in Body Weight (weight gain)", "setting": "[2]; 0.2 mg/kg/day i.p.", "result": 17.2, "unit": "%"}, {"measurement": "% Change in Body Weight (weight gain)", "setting": "[2]; 0.4 mg/kg/day i.p.", "result": 22.0, "unit": "%"}, {"measurement": "% Change in Body Weight (weight gain)", "setting": "[2]; 0.8 mg/kg/day i.p.", "result": 18.0, "unit": "%"}, {"measurement": "% Inhibition", "setting": "[3]; 0.2 mg/kg/day i.p.", "result": 70, "unit": "%"}, {"measurement": "% Inhibition", "setting": "[3]; 0.4 mg/kg/day i.p.", "result": 85, "unit": "%"}, {"measurement": "% Inhibition", "setting": "[3]; 0.8 mg/kg/day i.p.", "result": 76, "unit": "%"}, {"measurement": "suppress lymphocyte proliferation", "setting": "lymphocyte proliferation", "result": "suppress lymphocyte proliferation"}, {"measurement": "IC50 /MTT", "setting": "[4]", "result": 5, "unit": "ng/mL"}]}, {"molecule": "Cyclosporin A", "values": [{"measurement": "% Change in Body Weight (weight gain)", "setting": "[2]; 10 mg/kg/day i.p.", "result": 27.2, "unit": "%"}, {"measurement": "% Inhibition", "setting": "[3]; 10 mg/kg/day i.p.", "result": 100, "unit": "%"}]}, {"molecule": "[1S (1α, 2β,3α, 3aβ,4aR*,4bα, 11aα)1-3-chloro-1, 2,3,3a,4b,5,6,9,9b, 10,11,11a-dodecahydro-1,2,11a-trihydroxy-4b-methyl-2-(1 -methylethyl)-7H-oxireno[4b,5]phenanthro [1,2-c]furan-7-one [Example 2]", "values": [{"measurement": "IC50 /MTT", "setting": "[4]", "result": 550, "unit": "ng/mL"}, {"measurement": "IC50 /IL-2", "setting": "IL-2 production", "result": 0.06, "unit": "µg/mL"}]}, {"molecule": "[1S-(1α, 2β, 3α, 3aβ,4aR, 4bα, 11β, 11aα)-3-chloro-1, 2,3,3a,4b,5,6,9,9b, 10,11,11a-dodecahydro-1,11a-dihydroxy-4b-methyl-2-(1-methylethyl)-2,11 -epoxy-7oxireno[4b,5]phenanthro[1,2-c]furan-7-one [Example 3]", "values": [{"measurement": "IC50 /MTT", "setting": "[4]", "result": "> 1,000 ng/mL"}, {"measurement": "IC50 /IL-2", "setting": "IL-2 production", "result": 0.14, "unit": "µg/mL"}]}]}
